{
  "source": "PubChem BioAssay AID1259407",
  "about": "(Chemical Carcinogenesis Research Information System (CCRIS), 2018)",
  "tested_on": "CCRIS mutagenicity, Ames/micronucleus/aberration tests",
  "assay": "CCRIS mutagenicity studies",
  "settings": "Test System: AMES SALMONELLA TYPHIMURIUM",
  "note": "Activity calls are given as the source filed them. How the calls were made is not given here.",
  "data": [
    {"smiles": "ClCC(Cl)Cl", "values": [
      {"measurement": "mutagenic call", "setting": "Strain/Indicator: TA97, Metabolic Activation: HAMSTER, LIVER, S-9, AROCLOR 1254 (10%), Method: PREINCUBATION", "result": "inactive; negative"},
      {"measurement": "mutagenic call", "setting": "Strain/Indicator: TA97, Metabolic Activation: HAMSTER, LIVER, S-9, AROCLOR 1254 (30%), Method: PREINCUBATION", "result": "inactive; negative"},
      {"measurement": "mutagenic call", "setting": "Strain/Indicator: TA97, Metabolic Activation: NONE, Method: PREINCUBATION", "result": "inactive; negative"},
      {"measurement": "mutagenic call", "setting": "Strain/Indicator: TA97, Metabolic Activation: NONE, Method: STANDARD PLATE", "result": "active; positive"},
      {"measurement": "mutagenic call", "setting": "Strain/Indicator: TA97, Metabolic Activation: RAT, LIVER, S-9, AROCLOR 1254 (10%), Method: PREINCUBATION", "result": "inactive; negative"},
      {"measurement": "mutagenic call", "setting": "Strain/Indicator: TA97, Metabolic Activation: RAT, LIVER, S-9, AROCLOR 1254 (30%), Method: PREINCUBATION", "result": "inactive; negative"},
      {"measurement": "mutagenic call", "setting": "Strain/Indicator: TA97, Metabolic Activation: RAT, LIVER, S-9, AROCLOR 1254, Method: STANDARD PLATE", "result": "active; positive"},
      {"measurement": "mutagenic call", "setting": "Strain/Indicator: TA98, Metabolic Activation: HAMSTER, LIVER, S-9, AROCLOR 1254 (10%), Method: PREINCUBATION", "result": "inactive; negative"},
      {"measurement": "mutagenic call", "setting": "Strain/Indicator: TA98, Metabolic Activation: HAMSTER, LIVER, S-9, AROCLOR 1254 (30%), Method: PREINCUBATION", "result": "inactive; negative"},
      {"measurement": "mutagenic call", "setting": "Strain/Indicator: TA98, Metabolic Activation: NONE, Method: PREINCUBATION", "result": "inactive; negative"},
      {"measurement": "mutagenic call", "setting": "Strain/Indicator: TA98, Metabolic Activation: NONE, Method: STANDARD PLATE", "result": "inactive; negative"},
      {"measurement": "mutagenic call", "setting": "Strain/Indicator: TA98, Metabolic Activation: RAT, LIVER, S-9, AROCLOR 1254 (10%), Method: PREINCUBATION", "result": "inactive; negative"},
      {"measurement": "mutagenic call", "setting": "Strain/Indicator: TA98, Metabolic Activation: RAT, LIVER, S-9, AROCLOR 1254 (30%), Method: PREINCUBATION", "result": "inactive; negative"},
      {"measurement": "mutagenic call", "setting": "Strain/Indicator: TA98, Metabolic Activation: RAT, LIVER, S-9, AROCLOR 1254, Method: STANDARD PLATE", "result": "inactive; negative"},
      {"measurement": "mutagenic call", "setting": "Strain/Indicator: TA100, Metabolic Activation: HAMSTER, LIVER, S-9, AROCLOR 1254 (10%), Method: PREINCUBATION", "result": "inactive; negative"},
      {"measurement": "mutagenic call", "setting": "Strain/Indicator: TA100, Metabolic Activation: HAMSTER, LIVER, S-9, AROCLOR 1254 (30%), Method: PREINCUBATION", "result": "inactive; negative"},
      {"measurement": "mutagenic call", "setting": "Strain/Indicator: TA100, Metabolic Activation: NONE, Method: PREINCUBATION", "result": "inactive; negative"},
      {"measurement": "mutagenic call", "setting": "Strain/Indicator: TA100, Metabolic Activation: NONE, Method: STANDARD PLATE", "result": "active; positive"},
      {"measurement": "mutagenic call", "setting": "Strain/Indicator: TA100, Metabolic Activation: RAT, LIVER, S-9, AROCLOR 1254 (10%), Method: PREINCUBATION", "result": "inactive; negative"},
      {"measurement": "mutagenic call", "setting": "Strain/Indicator: TA100, Metabolic Activation: RAT, LIVER, S-9, AROCLOR 1254 (30%), Method: PREINCUBATION", "result": "inactive; negative"},
      {"measurement": "mutagenic call", "setting": "Strain/Indicator: TA100, Metabolic Activation: RAT, LIVER, S-9, AROCLOR 1254, Method: STANDARD PLATE", "result": "inactive; negative"},
      {"measurement": "mutagenic call", "setting": "Strain/Indicator: TA104, Metabolic Activation: NONE, Method: STANDARD PLATE", "result": "inactive; negative"},
      {"measurement": "mutagenic call", "setting": "Strain/Indicator: TA104, Metabolic Activation: RAT, LIVER, S-9, AROCLOR 1254, Method: STANDARD PLATE", "result": "active; positive"},
      {"measurement": "mutagenic call", "setting": "Strain/Indicator: TA1535, Metabolic Activation: HAMSTER, LIVER, S-9, AROCLOR 1254 (10%), Method: PREINCUBATION", "result": "inactive; negative"},
      {"measurement": "mutagenic call", "setting": "Strain/Indicator: TA1535, Metabolic Activation: HAMSTER, LIVER, S-9, AROCLOR 1254 (30%), Method: PREINCUBATION", "result": "inactive; negative"},
      {"measurement": "mutagenic call", "setting": "Strain/Indicator: TA1535, Metabolic Activation: NONE, Method: PREINCUBATION", "result": "inactive; negative"},
      {"measurement": "mutagenic call", "setting": "Strain/Indicator: TA1535, Metabolic Activation: RAT, LIVER, S-9, AROCLOR 1254 (10%), Method: PREINCUBATION", "result": "inactive; negative"},
      {"measurement": "mutagenic call", "setting": "Strain/Indicator: TA1535, Metabolic Activation: RAT, LIVER, S-9, AROCLOR 1254 (30%), Method: PREINCUBATION", "result": "inactive; negative"},
      {"measurement": "mutagenic call", "setting": "Strain/Indicator: TA1537, Metabolic Activation: HAMSTER, LIVER, S-9, AROCLOR 1254 (10%), Method: PREINCUBATION", "result": "inactive; negative"},
      {"measurement": "mutagenic call", "setting": "Strain/Indicator: TA1537, Metabolic Activation: HAMSTER, LIVER, S-9, AROCLOR 1254 (30%), Method: PREINCUBATION", "result": "inactive; negative"},
      {"measurement": "mutagenic call", "setting": "Strain/Indicator: TA1537, Metabolic Activation: NONE, Method: PREINCUBATION", "result": "inactive; negative"},
      {"measurement": "mutagenic call", "setting": "Strain/Indicator: TA1537, Metabolic Activation: RAT, LIVER, S-9, AROCLOR 1254 (10%), Method: PREINCUBATION", "result": "inactive; negative"},
      {"measurement": "mutagenic call", "setting": "Strain/Indicator: TA1537, Metabolic Activation: RAT, LIVER, S-9, AROCLOR 1254 (30%), Method: PREINCUBATION", "result": "inactive; negative"}
    ]},
    {"smiles": "Fc1cc2ccccc2c2ncccc12", "values": [
      {"measurement": "mutagenic call", "setting": "Strain/Indicator: TA100, Metabolic Activation: RAT, LIVER, S-9, PHENOBARBITAL AND 5,6-BENZOFLAVONE, Method: PREINCUBATION", "result": "active; positive"}
    ]}
  ]
}
